Measurements from patent US20200354327A1, “COMPOUND HAVING STAT3 INHIBITORY ACTIVITY AND USE THEREOF” (CYTUS H&B CO., LTD., priority 2017, published 2020).

Assays:
[1] = test system: caspase-3 and PARP; assay: Western blot of caspase-3 and PARP; type: cell-based, human
Experimental: (§1) Western blot analysis was performed (Jung J E, et al. FASEB J. 19, 1296-1298 (2005)). The cells were washed two times with PBS and suspended in the lysate (50 mM Tris-HCl, pH 7.4, 350 mM NaCl, 1% Triton X-100, 0.5% Nonidet P-40, 10% glycerol, 0.1% SDS, 1 mM EDTA, 1 mM EGTA, 1 mM Na3VO4, 1 mM PMSF, protease and phosphorylation inhibitor) and the cell membrane and nuclear membrane were crushed to lyse the cells. The insoluble protein fraction was removed by centrifugation, and the supernatant was mixed with SDS electrophoresis buffer and electrophoresis (SDS-PAGE) was performed to detect the protein with the desired antibody and to confirm the protein expression level.

[2] = test system: MDA-MB-231 cells; assay: Cell proliferation assay, MDA-MB-231; type: cell-based, human; conditions: MDA-MB-231, by time period, versus DMSO
Experimental: Cell proliferation assay was performed as previously described (Won C, et al. Anticancer Res. 30, 481-488 (2010)). In order to analyze the cell proliferation rate, U87-MG and MDA-MB-231 cell lines were dispensed into a 6-well culture dish, then treated with DMSO and ODZ10117 the next day, and stained with crystal violet after 0 h, 24 h, 48 h, and 72 h, and the number of live cells was calculated using a hemocytometer.

[3] = test system: MDA-MB-231 cells; assay: Human tumor cell xenograft, MDA-MB-231; type: in vivo, BALB/c nude mice; conditions: MDA-MB-231 xenograft, injected directly into the tumor, versus DMSO
Experimental: (§2) Male Nude Mouse (BALB/cAnNCrj-nu/nu) was purchased from Charles River Japan Inc. (Shin-Yokohama, Japan). The mouse was bred in a clean room in which the temperature and humidity were constantly controlled. The breeding process was carried out according to the method described in the manual for maintenance of laboratory animals in Seoul National University. U87-MG cells or MDA-MB-231 cells were diluted with PBS, suspended in 100 μl of Matrigel at 25% concentration, and injected into the back of mouse and bred for 6 to 10 weeks. Human tumor growth was measured every other day using a vernier caliper from 2 weeks after cell injection. With regard to the degree of inhibition of human tumor cell formation, 40 μM of ODZ10117 was directly injected into the human tumor on days 0, 3, and 5 from week 4 of tumor cell injection. On the 7th day, the mouse was sacrificed to separate the tumor, and the tumor cell inhibitory efficacy of the drug was measured by being compared with that of the control group treated with 1% DMSO.

[4] = biological target: T1, STAT3 (Homo sapiens, UniProt P40763); assay: STAT3 activity in various human cancer cell lines with excessively activated or IL-6-induced STAT3; type: cell-based; parameters: endogenous in cells; host or cells: L540, HDLM-2, U87-MG, MDA-MB-231, further human glioblastoma and breast cancer lines
Experimental: The human cancer cell lines used in the experiment were U87-MG (human malignant glioblastoma) and MDA-MB-231 (human malignant breast cancer) cell lines, and various kinds of human-derived blood and solid cancer cells including these human cancer cell lines were cultured as previously described (Jung J E, et al. FASEB J. 19, 1296-1298 (2005)). The human Hodgkin lymphoma cancer cell lines L540 and HLDM-2 used in the experiment were obtained from the German Collection of Microorganism and Cell Cultures (DSMZ, Germany) and cultured using RPMI 1640 medium containing 20% FBS in a 5% CO2 incubator at a temperature of 37° C.
as §1
Target sequence in this assay (P40763 whole entry): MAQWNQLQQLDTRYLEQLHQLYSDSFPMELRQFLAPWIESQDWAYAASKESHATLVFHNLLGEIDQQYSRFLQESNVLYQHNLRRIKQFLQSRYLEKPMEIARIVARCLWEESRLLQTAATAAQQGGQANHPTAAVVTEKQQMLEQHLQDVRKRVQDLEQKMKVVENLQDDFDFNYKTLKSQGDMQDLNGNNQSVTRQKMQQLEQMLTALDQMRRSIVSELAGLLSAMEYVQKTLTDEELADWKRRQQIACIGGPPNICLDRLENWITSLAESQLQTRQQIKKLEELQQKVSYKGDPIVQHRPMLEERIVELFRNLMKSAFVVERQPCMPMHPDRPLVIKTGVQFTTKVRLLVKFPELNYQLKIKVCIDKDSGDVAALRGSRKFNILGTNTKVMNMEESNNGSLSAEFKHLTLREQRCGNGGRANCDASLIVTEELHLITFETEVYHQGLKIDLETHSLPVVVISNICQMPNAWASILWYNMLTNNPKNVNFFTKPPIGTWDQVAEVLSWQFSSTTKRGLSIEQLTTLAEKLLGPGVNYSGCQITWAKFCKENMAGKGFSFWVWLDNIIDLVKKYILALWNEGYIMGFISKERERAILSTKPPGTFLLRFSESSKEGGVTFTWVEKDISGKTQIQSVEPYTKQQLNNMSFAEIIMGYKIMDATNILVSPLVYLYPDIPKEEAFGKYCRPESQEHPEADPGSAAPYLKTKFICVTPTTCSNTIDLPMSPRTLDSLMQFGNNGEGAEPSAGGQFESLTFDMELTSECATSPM

[5] = biological target: T1, STAT3; assay: STAT3 dimerization (STAT3-Flag / STAT3-HA, immunoprecipitation and western blot in HEK293T); type: cell-based; parameters: Flag; HA; expressed in transfected cells; host or cells: HEK293T
Target sequence in this assay (P40763 whole entry, species assumed): as the sequence (P40763 whole entry) above

[6] = biological target: T1, STAT3; assay: Nuclear translocation of STAT3 (fluorescence microscope); type: cell-based; parameters: endogenous in cells; host or cells: L540, HDLM-2, U87-MG, MDA-MB-231, further human glioblastoma and breast cancer lines; conditions: compared with the control group
Target sequence in this assay (P40763 whole entry): as above

[7] = test system: STAT92E; assay: Drosophila cell luciferase assay (10XSTAT92E-luciferase reporter); type: cell-based; conditions: compared with DMSO-treated group, concentration-dependent
Experimental: Drosophila cells (S2-NP, 24×3) used in the experiment were cultured as previously described (Kim B H, et al. Mol Cancer Ther. 7, 2672-2680 (2008)). S2-NP (Drosophila Schneider cell) cells were Drosophila-derived macrophage-like cells and were cultured in Schneider's medium. 24×3 cells were cell lines stably expressed by inserting 10XSTAT92E-luciferase and PolIII-Renilla luciferase-labeled plasmid DNA as reporter constructs into S2-NP cells and were cultured in a medium prepared by adding […] of geneticin to the same medium as that for S2-NP. S2-NP cells in which unpaired (upd) or HOPT^Tum-l as a ligand was expressed and 24×3 cells constructed with reporter constructs were mixed at a constant ratio and cultured for 24 hours in the presence of a compound, the expression level of STAT92E was measured using a luminometer, and the inhibition effect was compared with that of the DMSO-treated group.

[8] = test system: U87-MG cells; assay: Human tumor cell xenograft, U87-MG; type: in vivo, BALB/c nude mice; conditions: injected directly into the tumor, versus DMSO
Experimental: as §2

[9] = biological target: T1, STAT3; assay: STAT3-TA-luciferase assay in HEK293T cells; type: cell-based
Experimental: Assay on the expression of luciferase was performed as previously described (Jung J E, et al. FASEB J. 19, 1296-1298 (2005)). Plasmid DNA having STAT3-TA-luciferase as a reporter construct was temporarily expressed in HEK293T cells using Lipofectamine 2000, the HEK293T cells were treated with ODZ10117, the level of STAT3 expression was measured using a luminometer, and the inhibitory effect was compared with that of the DMSO-treated group.
Target sequence in this assay (P40763 whole entry): as above

[10] = test system: MMP-2; assay: Activity of MMP-2 in U87-MG and MDA-MB-231 cells; type: cell-based, human; conditions: U87-MG and MDA-MB-231, 24 hours
[11] = test system: human malignant glioblastoma; assay: Cell viability of human malignant glioblastoma with or without IL-6; type: cell-based; conditions: treated with IL-6 for 24 or 48 hours or not; various concentrations

SMILES: Clc1ccc(OCc2noc(C(Cl)(Cl)Cl)n2)c(Cl)c1 [ODZ10117, 3-(2,4-dichloro-phenoxymethyl)-5-trichloromethyl-[1,2,4]oxadiazole]
- amount of fragmented caspase-3 and PARP proteins [1]: significantly increased the amount of fragmented caspase-3 and PARP proteins
- cell proliferation [2]: effectively inhibited the proliferation of the two cell lines
- tumor growth [3]: significantly inhibited tumor growth
- activity of STAT3 induced by IL-6 ([4]; IL-6 induced): efficiently inhibited the activity of STAT3 induced by IL-6
- activity of STAT3 ([4]; various human cancer cell lines in which STAT3 was excessively activated): inhibited the activity of STAT3 in all kinds of cell lines used in the experiment
- activity of STAT3 induced by IL-6, compared with known inhibitors ([4]; versus NSC628869 and NSC74859): more efficiently inhibited the activity of STAT3 induced by IL-6 than NSC628869 and NSC74859
- STAT3 dimerization [5]: inhibited STAT3 dimerization
- STAT3 dimerization inhibitory efficacy compared with napabucasin [5]: superior STAT3 dimerization inhibitory efficacy to napabucasin
- nuclear translocation of STAT3 [6]: further inhibited nuclear translocation of STAT3
- promoter activity of STAT92E [7]: significantly decreased the promoter activity of STAT92E
- tumor growth [8]: significantly inhibited tumor growth
- promoter activity of STAT3 ([9]; compared with DMSO-treated group): significantly decreased the promoter activity of STAT3
- transcriptional activity of STAT3 ([9]; various concentrations): inhibited the transcriptional activity of STAT3 in a concentration-dependent manner
- activity of MMP-2 [10]: significantly decreased
- cell survival [11]: cell survival was inhibited
